Reference: US20160235752A1, “COMPOSITIONS, METHODS OF USE, AND METHODS OF TREATMENT” (THE UNIVERSITY OF NEW ORLEANS, priority 2013, published 2016)
In brackets after ≈: the same amount, converted by molar mass.

Assays:
[1] = system: Candida glabrata (ATCC no. 48435); assay: MIC determination by broth microdilution (NCCLS), visual scoring; type: cell-based; settings: for MIC80: Nakaseomyces glabratus, ATCC48435, read-out: MIC80 C. glabrata
[2] = system: Candida albicans (ATCC no. 10231) and Candida glabrata (ATCC no 48435); assay: Antifungal activity, text statements that do not say which fungus; type: cell-based
Description: The antifungal activity of the 2,4,6-pyrimidinetrione analogs shown in Schemes 2-6 were evaluated in vitro using Candida albicans (ATCC no. 10231) and Candida glabrata (ATCC no 48435). All assays were done in accordance with NCCLS reference documents^29. The results of these screenings are summarized in Tables 1-9 as the minimal inhibitory concentrations that inhibited more than 80% fungal growth as compared to the positive controls in 1% DMSO and RPMI media. All MIC screens were done using a visual scoring method as opposed to spectroscopic methods of analysis, due to the physical properties of many of the compounds altering their absorbance spectra relative to the positive, negative and drug controls.
None of the compounds tested over the course of these studies were soluble in water and DMSO was used to dilute each compound tested. Master stock concentrations of all tested compounds were prepared to ensure that the maximum final concentration of DMSO was 1% or less. Subsequent 2-fold serial dilutions were made using sterile water to a final concentration of 1280-5.00 μg/ml. A final 10-fold dilution of each drug was made by aliquotting 0.1 mL of each drug dilution into 0.9 mL of fungal suspension in RPMI 1640 media with 10 mM HEPES buffer added (see methodology below), giving final concentrations tested in the range of 128-0.5 μg/ml.
Antifungal susceptibility studies and minimal inhibitory concentrations (MIC) values for Candida albicans (ATCC no. 10231) and Candida glabrata (ATCC no. 48435) were determined by the broth microdilution technique in accordance with NCCLS reference documents. Microdilution panels ranged from 0.5 to 128 μg/mL. All organisms were subcultured on Sabouraud agar and passaged to ensure purity and viability. The initiating inocula were prepared by picking 5-7 isolated colonies ˜1 mm in diameter from freshly prepared YM agar plates. […] Growth was scored visually. […]

[3] = system: Candida albicans (ATCC no. 10231); assay: MIC determination by broth microdilution (NCCLS), visual scoring; type: cell-based; settings: for MIC80: Candida albicans, ATCC10231, read-out: MIC80 C. albicans
Procedure, shortened: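 NCCLS broth microdilution in RPMI 1640 with 10 mM HEPES, final compound 0.5–128 μg/mL, DMSO ≤1%. Inoculum from 0.5 McFarland stock diluted 1:50; incubated 35 °C for 48–72 h. MIC scored visually as lowest concentration giving ~80% growth reduction versus drug-free wells.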

[4] = system: Vero cells (African green monkey kidney cells-ATCC no. CRL-1651); assay: In vitro mammalian cell toxicity (Promega CellTiter 96, MTT); type: cell-based; settings: cells from the kidney origin; 24 hours; concentration not given
Description: Finally, in vitro mammalian cell toxicity studies were done using both mammalian kidney cells and human liver cells (Vero (kidney) cells-ATCC no. CRL-1651 and Hep G2 (liver) ATCC no. HB-8065) on all derivatives that had antifungal activity of less than 8 μg/mL. Cytotoxicity studies were performed in accordance with Promega CellTiter 96 Non-RadioactivCell Proliferation Assay (cat # G4000). The data is presented as the percent cells that remain viable, compared to the negative control, which was set to 100%. BA22, BA23 and BA73 had minimal toxicity in the kidney cells, with over 80% cells viable even at a concentration 10 times higher than the MIC (Table 7).
Cytotoxicity was determined using non-cancerous Vero cells (African green monkey kidney cells-ATCC no. CRL-1651) and Hep G2 (liver) (ATCC no. HB-8065) cells in accordance with Promega CellTiter 96 Non-RadioactivCell Proliferation Assay (cat # G4000). Cells were grown for 24 h at 37° C. and 5% CO2 in a 96-well culture plate. All compounds with MIC≦8 μg/ml were further screened in the MTT assays using both cell types. Compounds that fit these criteria were diluted in media to the testing dilution amounts: the MIC concentration (shown in respective tables; 5×MIC; 10×MIC and 100×MIC. The media used to grow cells was DMEM containing 10% FBS and 2%. Cells were incubated in the presence of the compounds for 24 hours at 37° C. and 5% CO2. Tetrazolium dye solution was added to each well and allowed to incubate for 1-4 h. Stabilization/Stop solution was added and allowed to sit at room temperature for 1 h. Formazan product was scored spectrophotometrically with an automatic plate reader set at 570 nm. 0.1% saponin was used as a positive control. 1% DMSO controls were also used since the compounds were reconstituted in DMSO.

[5] = system: C. albicans strain SC5314; assay: Testing for respiratory deficiencies: growth in YPD, YPG, YPE; type: cell-based, Candida albicans
Description: (§1) FIGS. 2A and 2B illustrates BA22 activity is enhanced when Candida growth depends upon non-fermentable carbon sources. C. albicans strain SC5314 (FIG. 2A) or C. glabrata strain CS117.93 (FIG. 2B) were grown in medium with 2% glucose (YPD), 3% glycerol (YPG) or 3% ethanol (YPE) at pH 6.5, in dose response experiments with BA22. After 24 hours incubation at 30° C., growth was measured by OD600nm. Growth at each concentration of BA22 is shown as % growth relative to the minus drug (DMSO) control. Data shown is representative of two repeat experiments.
(§2) Considering the significant growth inhibition and lack of overall lack of cytotoxicity of many of the phenylhydrazones, we further explored potential mechanisms of action using the compound BA22 as a representative drug. We initially observed that in the presence of BA22, C. albicans formed small colonies similar to respiration deficient ‘petite’ mutants previously described for Saccharomyces. […] We therefore determined if BA22 affected the ability of C. albicans or C. glabrata to use glycerol or ethanol as carbon sources. […]
(§3) Respiratory deficiencies were examined using YPD (2% glucose), YPE (3% ethanol), or YPG (3% glycerol)^31. […] After 24 and 48 hours incubation at 30° C., growth was quantified by measuring OD600nm using a BioTek plate reader. Growth at each BA concentration was then expressed as % growth vs. the DMSO control of the same medium.

[6] = system: C. albicans; assay: Colony formation on agar plates enriched with BA22; type: cell-based, Candida albicans; settings: agar plates enriched with a range of BA22 concentrations; data not shown
Source text: Considering the significant growth inhibition and lack of overall lack of cytotoxicity of many of the phenylhydrazones, we further explored potential mechanisms of action using the compound BA22 as a representative drug. We initially observed that in the presence of BA22, C. albicans formed small colonies similar to respiration deficient ‘petite’ mutants previously described for Saccharomyces. […] This phenotype somewhat resembles that of respiration deficient ‘petite’ mutants, which are unable to utilize non-fermentable carbon sources such as glycerol and ethanol^30. We therefore determined if BA22 affected the ability of C. albicans or C. glabrata to use glycerol or ethanol as carbon sources. The concentrations of BA22 required to inhibit the growth of either fungi were much lower when glycerol or ethanol is provided as a carbon source versus glucose (FIG. 2). […] Growth inhibition occurred at higher BA22 concentrations in glucose medium, possibly indicating an additional secondary mechanism.

[7] = system: C. glabrata strain CS117.93; assay: Testing for respiratory deficiencies: growth in YPD, YPG, YPE; type: cell-based, Candida glabrata
Description: as §1, §2, §3

[8] = Table 7, Phenylhydrazones of 5-Acylpyrimidinetriones
[9] = Table 5, Schiff Bases of 5-acylpyrimidinetriones
[10] = YPG 3% glycerol or YPE 3% ethanol versus YPD 2% glucose, pH 6.5, 30° C., OD600nm

## CC(=NNc1ccc([N+](=O)[O-])cc1)C1C(=O)NC(=O)N(c2ccccc2)C1=O (centres unmarked) [BA28]
[1]; [8]
  MIC80 C. glabrata: 16 µg/mL (≈ 42 µM)
[2]
  inhibition of fungal growth (in words): greatly reduced inhibition
[3]; [8]
  MIC80 C. albicans: 31.5 µg/mL (≈ 82.6 µM)

## CN1C(=O)C(C=Nc2cccc(O)c2)C(=O)N(C)C1=O [BA95]
[1]; [9]
  MIC80 C. glabrata: — (none of the 5-acyl-2,4,6-pyrimidinetriones, 5-alkylated pyrimidinetriones or the 5,5-dialkylated pyrimidinetriones showed antifungal activity through 125 μg/mL)
[2]
  inhibition of fungal growth (in words): inactive
[3]; [9]
  MIC80 C. albicans: — (none of the 5-acyl-2,4,6-pyrimidinetriones, 5-alkylated pyrimidinetriones or the 5,5-dialkylated pyrimidinetriones showed antifungal activity through 125 μg/mL)

## C/C(=N\Nc1ccc([N+](=O)[O-])cc1)C1C(=O)NC(=O)NC1=O [BA25, 5-{(1E)-1-[2-(4-Nitrophenyl)hydrazinylidene]ethyl}pyrimidine-2,4,6-trione]
[1]
  MIC80: 2 µg/mL (≈ 6.55 µM)
[4]
  reduction in cell viability: ~35%
[3]
  MIC80: 2 µg/mL (≈ 6.55 µM)

## C/C(=N\Nc1ccccc1)C1C(=O)N(C)C(=O)N(C)C1=O [BA78, 1,3-dimethyl-5-[(1E)-1-(2-phenylhydrazinylidene)ethyl]pyrimidine-2,4,6-trione]
[1]
  MIC80: 2 µg/mL (≈ 6.94 µM)
[4]
  reduction in cell viability: ~35%
[3]
  MIC80: 2 µg/mL (≈ 6.94 µM)

## O=C1NC(=O)C(/C=N/Nc2ccc([N+](=O)[O-])cc2)C(=O)N1 [BA22, 5-{(E)-[2-(4-nitrophenyl)hydrazinylidene]methyl}pyrimidine-2,4,6-trione]
[1]
  MIC80: 1 µg/mL (≈ 3.43 µM)
[5]; FIG. 2A, 24 hours, 30° C., % growth relative to DMSO control
  activity when Candida growth depends upon non-fermentable carbon sources: enhanced
[5]; [10]
  concentrations of BA22 required to inhibit the growth, glycerol or ethanol versus glucose: much lower
[6]
  C. albicans colony formation: significantly delayed in a dose dependent manner, eventually forming small colonies
[7]; FIG. 2B, 24 hours, 30° C., % growth relative to DMSO control
  activity when Candida growth depends upon non-fermentable carbon sources: enhanced
[7]; [10]
  concentrations of BA22 required to inhibit the growth, glycerol or ethanol versus glucose: much lower
[3]
  MIC80: 2 µg/mL (≈ 6.87 µM)

## CN1C(=O)C(C=Nc2ccccc2O)C(=O)N(C)C1=O [BA94]
[1]; [9]
  MIC80 C. glabrata: — (none of the 5-acyl-2,4,6-pyrimidinetriones, 5-alkylated pyrimidinetriones or the 5,5-dialkylated pyrimidinetriones showed antifungal activity through 125 μg/mL)
[4]
  reduction in cell viability: ~35%
[3]; Schiff base derivatives, Table 5
  inhibitory activity of Candida albicans: showed inhibitory activity
[3]; Table 5, values marked *: compound displayed MIC with <50% inhibition
  MIC80 C. albicans: 8* μg/mL

## O=C1NC(=O)C(C=Nc2cccc(O)c2)C(=O)N1 [BA96]
[1]; [9]
  MIC80 C. glabrata: — (none of the 5-acyl-2,4,6-pyrimidinetriones, 5-alkylated pyrimidinetriones or the 5,5-dialkylated pyrimidinetriones showed antifungal activity through 125 μg/mL)
[2]
  inhibition of fungal growth (in words): inactive
[3]; [9]
  MIC80 C. albicans: — (none of the 5-acyl-2,4,6-pyrimidinetriones, 5-alkylated pyrimidinetriones or the 5,5-dialkylated pyrimidinetriones showed antifungal activity through 125 μg/mL)
